# From the supplement of paper PMC10307832
# Experiments:
# Test in all cases: relative viability (nuclei count vs DMSO), 5 days (fraction); higher = more cells survive
# CX-5461 = compound: Cc1cnc(CNC(=O)c2c(=O)c3ccc(N4CCCN(C)CC4)nc3n3c2sc2ccccc23)cn1 [CX-5461]
# In short: (§1)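 Five library-drug doses spaced by √10 were pinned onto vehicle-anchored 1536-well plates of lung cancer cell lines that had been kept overnight at 37 °C. Cells went 5 days without medium change, then were fixed, permeabilised and Hoechst-stained together, imaged at 4× and counted by MetaXpress. Viability is the ratio of treated-well to vehicle-well nuclei, taken as a median over plates. Plates required control CV below 25% and at least one doubling.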
# IMD-0354 = compound: O=C(Nc1cc(C(F)(F)F)cc(C(F)(F)F)c1)c1cc(Cl)ccc1O [IMD-0354]
# In short: as §1
# CX-5461 + OSI-027 = compound: Cc1cnc(CNC(=O)c2c(=O)c3ccc(N4CCCN(C)CC4)nc3n3c2sc2ccccc23)cn1 [CX-5461] + COc1cccc2cc(-c3nc([C@H]4CC[C@H](C(=O)O)CC4)n4ncnc(N)c34)[nH]c12 [OSI-027] (partner 0.5 µM)
# In short: (§2)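 The day after seeding in 1536-well plates, lung cancer cell lines were treated by pin tool with a single drug, or with a fixed anchor-drug dose together with five library-drug doses (not always all listed) in √10 steps. After 5 days, a combined fix-and-stain solution (final 0.05% Triton X-100, 1% formaldehyde, 1 ug/ml Hoechst) was added. Nuclei counted on 4× images gave relative viability as treated counts over vehicle counts, reported as the median of duplicate plates.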
# IMD-0354 + Pemetrexed = compound: O=C(Nc1cc(C(F)(F)F)cc(C(F)(F)F)c1)c1cc(Cl)ccc1O [IMD-0354] + Nc1nc2[nH]cc(CCc3ccc(C(=O)N[C@@H](CCC(=O)O)C(=O)O)cc3)c2c(=O)[nH]1 [Pemetrexed] (partner 0.2 µM)
# In short: as §2
Cell Line,relative viability (CX-5461; 0.01 µM),relative viability (CX-5461; 0.03162 µM),relative viability (CX-5461; 0.1 µM),relative viability (CX-5461; 0.3162 µM),relative viability (CX-5461; 1 µM),relative viability (IMD-0354; 0.04 µM),relative viability (IMD-0354; 0.1265 µM),relative viability (IMD-0354; 0.4 µM),relative viability (IMD-0354; 1.265 µM),relative viability (IMD-0354; 4 µM),relative viability (CX-5461 + OSI-027; first compound 0.01 µM),relative viability (CX-5461 + OSI-027; first compound 0.03162 µM),relative viability (CX-5461 + OSI-027; first compound 0.1 µM),relative viability (CX-5461 + OSI-027; first compound 0.3162 µM),relative viability (CX-5461 + OSI-027; first compound 1 µM),relative viability (IMD-0354 + Pemetrexed; first compound 0.04 µM),relative viability (IMD-0354 + Pemetrexed; first compound 0.1265 µM),relative viability (IMD-0354 + Pemetrexed; first compound 0.4 µM),relative viability (IMD-0354 + Pemetrexed; first compound 1.265 µM),relative viability (IMD-0354 + Pemetrexed; first compound 4 µM)
NCI-H358,0.971,1.02,0.872,0.871,0.633,1.01,1,0.557,0.232,0.274,0.621,0.939,0.69,0.592,0.194,0.174,0.172,0.175,0.138,0.126
NCI-H441,1.08,1.17,0.947,0.888,0.689,1.13,0.966,0.521,0.227,0.243,0.696,0.659,0.607,0.534,0.408,0.255,0.251,0.289,0.177,0.147
NCI-H460,1.05,0.97,0.725,0.93,0.128,1.02,1.01,0.379,0.106,0.0241,0.573,0.541,–,0.684,0.0247,0.0638,0.0692,0.0923,0.0741,0.0289
NCI-H520,1.14,1.02,1.09,0.666,0.578,1.05,0.93,0.545,0.589,0.226,0.193,0.247,0.24,0.197,0.266,0.668,0.838,0.392,0.149,0.139
NCI-H522,0.98,0.944,0.946,–,0.951,0.934,0.848,0.909,0.7,0.406,0.739,0.771,0.77,–,0.669,1.35,0.895,0.91,0.62,0.397
NCI-H596,0.989,1.15,0.968,1.09,0.683,0.989,1.16,0.799,0.834,0.426,0.711,0.737,0.775,0.715,0.591,0.546,0.526,0.344,0.461,0.396
NCI-H647,1.08,0.935,0.991,0.822,0.403,1.04,1.06,0.405,0.172,0.11,0.742,0.565,0.669,0.566,0.467,0.182,0.148,0.185,0.111,0.0986
NCI-H650,0.919,1.02,0.788,0.879,0.768,1.13,0.954,0.594,0.555,0.214,0.578,0.558,0.483,0.536,0.352,1.05,0.97,0.793,0.436,0.169
NCI-H661,1.04,0.978,1.02,0.626,0.835,0.999,0.955,0.646,0.291,0.305,0.654,0.698,0.615,0.834,0.387,0.955,0.921,0.484,0.331,0.207
NCI-H838,0.983,1,0.992,0.78,0.806,0.977,0.954,0.565,0.432,0.27,0.413,0.384,0.404,–,0.272,0.25,0.229,0.161,0.191,0.167
NCI-H1355,1.03,1.06,0.96,0.521,0.671,1.12,0.946,0.716,0.368,0.221,0.438,0.428,0.456,0.267,0.321,1.07,1.1,0.673,0.527,0.216
NCI-H1395,0.978,0.853,0.816,0.475,0.588,1.15,0.989,0.823,0.324,0.296,0.639,0.625,0.63,0.475,0.515,0.986,0.81,0.616,0.334,0.323
NCI-H1437,1.03,0.97,0.894,1.03,0.877,1.12,0.941,0.626,0.32,0.244,0.912,0.869,–,0.841,0.662,0.321,0.338,0.221,0.191,0.202
NCI-H1563,0.963,0.954,0.806,0.939,0.64,0.979,0.974,0.856,0.472,0.402,0.715,0.745,0.691,0.771,0.52,0.815,0.9,0.669,0.5,0.231
NCI-H1648,0.614,0.952,0.674,0.742,0.851,0.588,0.686,0.685,0.814,0.365,–,0.256,0.277,0.27,0.27,0.653,0.693,0.401,0.455,0.277
NCI-H1650,0.965,0.948,0.406,0.794,0.205,0.96,0.771,0.616,0.252,0.174,0.678,0.643,0.283,0.497,0.182,0.364,0.352,0.309,0.259,0.12

Cell Line,relative viability (CX-5461; 0.01 µM),relative viability (CX-5461; 0.03162 µM),relative viability (CX-5461; 0.1 µM),relative viability (CX-5461; 0.3162 µM),relative viability (CX-5461; 1 µM),relative viability (IMD-0354; 0.04 µM),relative viability (IMD-0354; 0.1265 µM),relative viability (IMD-0354; 0.4 µM),relative viability (IMD-0354; 1.265 µM),relative viability (IMD-0354; 4 µM),relative viability (CX-5461 + OSI-027; first compound 0.01 µM),relative viability (CX-5461 + OSI-027; first compound 0.03162 µM),relative viability (CX-5461 + OSI-027; first compound 0.1 µM),relative viability (CX-5461 + OSI-027; first compound 0.3162 µM),relative viability (CX-5461 + OSI-027; first compound 1 µM),relative viability (IMD-0354 + Pemetrexed; first compound 0.04 µM),relative viability (IMD-0354 + Pemetrexed; first compound 0.1265 µM),relative viability (IMD-0354 + Pemetrexed; first compound 0.4 µM),relative viability (IMD-0354 + Pemetrexed; first compound 1.265 µM),relative viability (IMD-0354 + Pemetrexed; first compound 4 µM)
NCI-H1651,0.956,0.871,0.57,0.959,0.371,1.04,0.983,0.577,0.402,0.139,0.61,0.62,–,0.458,0.131,0.653,0.647,0.38,0.14,0.116
NCI-H1666,0.985,0.992,0.949,0.904,0.808,0.954,0.922,0.82,0.611,0.523,0.894,0.875,0.664,0.756,0.636,0.905,1,0.708,0.832,0.824
NCI-H1734,1.02,1.05,1,0.694,0.579,1.09,0.969,0.731,0.306,0.142,0.586,0.646,0.706,0.499,0.445,0.449,0.458,0.369,0.23,0.129
NCI-H1755,1.09,1.03,1.01,1.01,0.901,0.989,1.02,0.76,0.454,0.26,0.732,0.736,0.713,0.646,0.655,0.458,0.407,0.387,0.375,0.291
NCI-H1792,1.01,0.894,0.904,1.05,0.502,0.969,0.847,0.553,0.412,0.434,0.657,0.786,0.763,0.759,0.659,1.01,0.57,0.493,0.163,0.152
NCI-H1793,0.989,1.1,0.875,0.997,0.942,1.09,0.759,0.499,0.229,0.213,0.296,0.289,0.318,–,0.198,0.971,0.795,0.446,0.191,0.257
NCI-H1915,1.06,1.13,0.996,0.79,0.899,0.824,1.02,0.675,0.316,0.165,0.664,0.692,0.601,0.599,0.605,0.557,0.469,0.357,0.399,0.163
NCI-H1944,1,1.14,0.994,0.358,0.318,0.866,0.981,0.653,0.74,0.156,0.49,0.446,0.377,0.252,0.259,0.593,0.683,0.642,0.146,0.122
NCI-H1975,1.02,0.974,0.905,0.961,0.714,0.949,0.986,0.625,0.211,0.212,0.842,0.735,0.661,0.865,0.329,0.292,0.311,0.234,0.175,0.157
NCI-H1993,1.06,1.08,1.01,0.952,0.993,0.939,0.89,0.648,0.555,0.567,0.562,0.591,0.625,0.511,0.448,0.578,0.565,0.518,0.344,0.412
NCI-H2009,1.02,1.04,0.879,1.02,0.75,1.02,0.929,0.738,0.19,0.131,0.696,0.651,0.471,0.697,0.516,0.934,1,0.722,0.324,0.124
NCI-H2023,1,0.903,–,0.648,0.0929,1.11,0.986,0.573,0.128,0.0998,0.387,0.386,0.184,0.329,0.0856,0.217,0.212,0.118,0.0926,0.103
NCI-H2085,1.07,1.01,0.992,1.02,0.869,1.06,0.975,0.775,0.449,0.415,0.845,0.75,0.625,0.557,0.557,0.954,0.846,0.644,0.294,0.276
NCI-H2087,1.26,1.16,1.02,1.01,0.717,1.02,1,0.382,0.11,0.152,0.61,0.499,0.474,0.369,0.407,0.721,0.688,0.345,0.0911,0.106
NCI-H2126,1,1.06,1.03,0.991,0.972,1.03,0.981,0.848,0.484,0.387,0.75,0.684,0.717,0.783,0.63,0.74,0.722,0.569,0.37,0.266
